Laboratory results reported in US11186585B2 (priority 2018, dated 2021).
Several values for one entry are separate records, joined by “and”; a condition that tells them apart may be missing. Equal entries are not always repeated. Structures can show the parent of a compound that is named as a salt.

Legend:
[1] = Stability in the simulated gastro-intestinal fluid (sGIF); conditions: 0.5% pepsine in 0.1N aqueous HCl, 37° C.; acceptance: NLT 80% of the derivative still intact after 4 hrs
[2] = Stability in human plasma; conditions: 37° C., acceptance criteria: NLT than 20% of hydrolysis after 4 hrs
Sprague-Dawley rats = experiment: Antinociceptive activity, cold ethanol tail-flick test after oral gavage; type: in vivo, rat; conditions: for Analgesia (rat): oral gavage in sesame oil, 60 uM/kg, one dose, tail-flick at −20° C., cutoff 40 seconds; for analgesia in rats, in words: given orally, compared with equivalent dose of Nalbuphine (parent opioid)
rats = experiment: Randall-Selitto test after SC dose; type: in vivo, rat; conditions: NB-33.HCl 3.9 mg/kg; for Randall-Selitto (g), individual animal: NB.HCl 3 mg/kg; for Randall-Selitto (g), Mean: mean of 5, NB.HCl 3 mg/kg
Description: FIG. 13 illustrate in the graphical form the results for 1310 NB-33, marked 1310, in comparison to the base NB compound NB, marked 1320 in FIG. 13.

CC(C)=CCC/C(C)=C/COc1ccc2c3c1OC1C(O)CCC4(O)C(C2)N(CC2CCC2)CCC314 (stereo not shown) [NB-20, (E)-3-(cyclobutylmethyl)-9-((3,7-dimethylocta-2,6-dien-1-yl)oxy)-1,2,3,4,5,6,7,7a-octahydro-4aH-4,12-methanobenzofuro[3,2-e]isoquinoline-4a,7-diol]
Stable in sGIF [1]: No | Stable in plasma [2]: No | Analgesia (rat) (Sprague-Dawley rats): No

CC(C)=CCC/C(C)=C/CC/C(C)=C/COc1ccc2c3c1OC1C(O)CCC4(O)C(C2)N(CC2CCC2)CCC314 (stereo not shown) [NB-28, 3-(cyclobutylmethyl)-9-(((2E,6E)-3,7,11-trimethyldodeca-2,6,10-trien-1-yl)oxy)-1,2,3,4,5,6,7,7a-octahydro-4aH-4,12-methanobenzofuro[3,2-e]isoquinoline-4a,7-diol]
Stable in sGIF [1]: No | Stable in plasma [2]: No | Analgesia (rat) (Sprague-Dawley rats): No

C=CCCCCCCCCC(=O)Oc1ccc2c3c1OC1C(O)CCC4(O)C(C2)N(CC2CCC2)CCC314 (stereo not shown) [NB-31, 3-(cyclobutylmethyl)-4a,7-dihydroxy-2,3,4,4a,5,6,7,7a-octahydro-1H-4,12-methanobenzofuro[3,2-e]isoquinolin-9-yl undec-10-enoate]
Stable in sGIF [1]: Yes | Stable in plasma [2]: No | analgesia in rats, in words (Sprague-Dawley rats): no analgesia | Analgesia (rat) (Sprague-Dawley rats): Inactive

CC(C)=CCC/C(C)=C/C(=O)Oc1ccc2c3c1OC1C(O)CCC4(O)C(C2)N(CC2CCC2)CCC314 (stereo not shown) [NB-32, 3-(cyclobutylmethyl)-4a,7-dihydroxy-2,3,4,4a,5,6,7,7a-octahydro-1H-4,12-methanobenzofuro[3,2-e]isoquinolin-9-yl (E)-3,7-dimethylocta-2,6-dienoate]
Stable in sGIF [1]: Yes | Stable in plasma [2]: No | analgesia in rats, in words (Sprague-Dawley rats): no analgesia | Analgesia (rat) (Sprague-Dawley rats): Inactive

CC(C)C(=O)Oc1ccc2c3c1OC1C(O)CCC4(O)C(C2)N(CC2CCC2)CCC314 (stereo not shown) [NB-46, 3-(cyclobutylmethyl)-4a,7-dihydroxy-2,3,4,4a,5,6,7,7a-octahydro-1H-4,12-methanobenzofuro[3,2-e]isoquinolin-9-yl isobutyrate]
Stable in sGIF [1]: Yes | Stable in plasma [2]: Yes | Analgesia (rat) (Sprague-Dawley rats): No

CC(C)=CC(=O)Oc1ccc2c3c1OC1C(O)CCC4(O)C(C2)N(CC2CCC2)CCC314 (stereo not shown) [NB-51, 3-(cyclobutylmethyl)-4a,7-dihydroxy-2,3,4,4a,5,6,7,7a-octahydro-1H-4,12-methanobenzofuro[3,2-e]isoquinolin-9-yl 3-methylbut-2-enoate]
Stable in sGIF [1]: Yes | Stable in plasma [2]: No | Analgesia (rat) (Sprague-Dawley rats): Inactive

C/C=C(\C)C(=O)Oc1ccc2c3c1OC1C(O)CCC4(O)C(C2)N(CC2CCC2)CCC314 (stereo not shown) [NB-52, 3-(cyclobutylmethyl)-4a,7-dihydroxy-2,3,4,4a,5,6,7,7a-octahydro-1H-4,12-methanobenzofuro[3,2-e]isoquinolin-9-yl (E)-2-methylbut-2-enoate]
Stable in sGIF [1]: Yes | Stable in plasma [2]: No | analgesia in rats, in words (Sprague-Dawley rats): no analgesia | Analgesia (rat) (Sprague-Dawley rats): Inactive

CC=C(OC)C(=O)Oc1ccc2c3c1OC1C(O)CCC4(O)C(C2)N(CC2CCC2)CCC314 (stereo not shown) [NB-58, 3-(cyclobutylmethyl)-4a,7-dihydroxy-2,3,4,4a,5,6,7,7a-octahydro-1H-4,12-methanobenzofuro[3,2-e]isoquinolin-9-yl 2-methoxybut-2-enoate]
Stable in sGIF [1]: No | Stable in plasma [2]: No | Analgesia (rat) (Sprague-Dawley rats): No

C/C=C/C=C/C(=O)Oc1ccc2c3c1OC1C(OC(C)=O)CCC4(O)C(C2)N(CC2CCC2)CCC314 (stereo not shown) [NB-76, 7-acetoxy-3-(cyclobutylmethyl)-4a-hydroxy-2,3,4,4a,5,6,7,7a-octahydro-1H-4,12-methanobenzofuro[3,2-e]isoquinolin-9-yl (2E,4E)-hexa-2,4-dienoate]
Stable in sGIF [1]: Yes | Stable in plasma [2]: No | Analgesia (rat) (Sprague-Dawley rats): moderate

O=C(/C=C/c1ccccc1)Oc1ccc2c3c1OC1C(O)CCC4(O)C(C2)N(CC2CCC2)CCC314 (stereo not shown) [NB-78, 3-(cyclobutylmethyl)-4a,7-dihydroxy-2,3,4,4a,5,6,7,7a-octahydro-1H-4,12-methanobenzofuro[3,2-e]isoquinolin-9-yl cinnamate]
Stable in sGIF [1]: Yes | Stable in plasma [2]: No | analgesia in rats, in words (Sprague-Dawley rats): no analgesia | Analgesia (rat) (Sprague-Dawley rats): Inactive

Oc1ccc2c3c1O[C@H]1[C@@H](O)CC[C@@]4(O)[C@@H](C2)N(CC2CCC2)CC[C@]314 [NB.HCl]
Randall-Selitto (g), individual animal (rats; Post-dose 0.5 hr): 78 g and 89 g and 93 g and 107 g and 134 g | Randall-Selitto (g), Mean (rats; Post-dose 0.5 hr): 100.2 g | Randall-Selitto (g), individual animal (rats; Post-dose 1 hr): 63 g and 62 g and 92 g and 90 g and 96 g | Randall-Selitto (g), Mean (rats; Post-dose 1 hr): 80.6 g | Randall-Selitto (g), individual animal (rats; Post-dose 2 hr): 58 g and 71 g and 103 g and 69 g and 93 g | Randall-Selitto (g), Mean (rats; Post-dose 2 hr): 78.8 g | Randall-Selitto (g), individual animal (rats; Post-dose 4 hr): 64 g and 66 g and 93 g (2×) and 61 g | Randall-Selitto (g), Mean (rats; Post-dose 4 hr): 75.4 g | Randall-Selitto (g), individual animal (rats; Post-dose 6 hr): 50 g and 71 g and 82 g and 69 g and 85 g | Randall-Selitto (g), Mean (rats; Post-dose 6 hr): 71.4 g | Randall-Selitto (g), individual animal (rats; Pre-treatment (baseline)): 89 g and 92 g and 100 g and 80 g and 91 g | Randall-Selitto (g), Mean (rats; Pre-treatment (baseline)): 90.4 g
